Read-outs that look alike come from different tables or passages of the source.
Experiments:
Type in all cases: biochemical
[1] = biological target: T1, CYP3A4 (Homo sapiens, UniProt P08684); assay: Cocktail assay for CYPs in human liver microsomes: CYP3A4 (midazolam 1′-hydroxylation); settings: 2 μM midazolam, 10 min at 37° C., 6 concentrations up to 10 μM
T1 construct: 0.1 mg/mL protein human liver microsomes (BD Gentest); tissue BD Gentest; host or cells: human liver microsomes

[2] = biological target: T2, CYP1A2 (Homo sapiens, UniProt P05177); assay: Cocktail assay for CYPs in human liver microsomes: CYP1A2 (phenacetin O-deethylation)
T2 construct: 0.1 mg/mL protein human liver microsomes (BD Gentest); tissue BD Gentest; host or cells: human liver microsomes
T2 sequence (P05177 1-516): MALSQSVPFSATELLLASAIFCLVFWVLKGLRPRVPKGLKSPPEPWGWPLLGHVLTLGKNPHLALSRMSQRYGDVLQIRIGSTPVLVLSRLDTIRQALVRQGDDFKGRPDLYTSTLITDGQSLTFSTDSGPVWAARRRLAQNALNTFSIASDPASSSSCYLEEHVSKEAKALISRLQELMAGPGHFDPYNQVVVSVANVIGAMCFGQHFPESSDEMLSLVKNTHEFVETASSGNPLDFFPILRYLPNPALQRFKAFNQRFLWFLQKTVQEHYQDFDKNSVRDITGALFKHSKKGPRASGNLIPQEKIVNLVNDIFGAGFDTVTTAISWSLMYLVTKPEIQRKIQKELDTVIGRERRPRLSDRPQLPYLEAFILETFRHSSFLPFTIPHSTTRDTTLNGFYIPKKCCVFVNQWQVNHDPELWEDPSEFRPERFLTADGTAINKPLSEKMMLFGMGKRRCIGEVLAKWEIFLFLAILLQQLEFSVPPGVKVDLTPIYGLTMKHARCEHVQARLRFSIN
Method: (§1) Determination of IC50 in a Cocktail Assay for CYPs 1A2, 2C9, 2C19, 2D6 and 3A4
(§2) This assay was performed in a standard 96-well plate design. […] The incubation substrate mix contains 10 μM phenacetin (1A2), 5 μM diclofenac (2C9), 30 μM mephenytoin (2C19), 5 μM dextromethorphan (2D6) and 2 μM midazolam (3A4), 0.1 mg/mL protein human liver microsomes (BD Gentest), 1 mM NAPDH, 3.3 mM MgCl2 and 100 mM potassium phosphate buffer (pH 7.4). The production of the metabolite of each probe substrate was determined after incubation for 10 min at 37° C. Quantitation of the metabolite peak area ratio against an internal standard (tolbutamide) was determined by LC/MS/MS analysis following acetonitrile treatment of the incubations.
(§3) Samples were analyzed in the MRM mode with a SCIEX API-4000 mass spectrometer (Applied Biosystems, Foster City, Calif.), with a Shimadzu LC-20 AD pump (Shimadzu corporation, Kyoto, JP) and a CTC PAL autosampler (Agilent Technologies, Switzerland). A Phenomenex, Luna, 5 μm, 100 A, 2.00×30 mm HPLC column was used for the separation. The mobile phases were: (A) 0.1% formic acid in water and (B) 0.1% formic acid in acetonitrile. The binary gradient was as follows.
(§4) The mass spectrum parameters were as follows:
(§5) The LC/MS/MS parameters for the analytes were as follows.
(§6) The peak area ratio of the analyte to the internal standard was used to quantify the metabolite. The values of peak area ratios in the presence of test compound were compared to those of maximum or minimum controls and were expressed as % inhibition by interpolating between the maximum and minimum peak area ratios. Incubations with no inhibitor were defined as the maxima.
(§7) The following equation was used to calculate the % inhibition: [1−[(X−Low control)/(High control−Low control)]]*100
(§8) For the IC50 calculation, SigmaPlot was used to plot the mean % inhibition versus the test compound concentrations and for non-linear regression analysis of the data. Depending on the range of data points defining the inhibition curve, the data may have been fit to the 4-parameter logistic equation.

[3] = biological target: T3, CYP2C9 (Homo sapiens, UniProt P11712); assay: Cocktail assay for CYPs in human liver microsomes: CYP2C9 (diclofenac 4′-hydroxylation); settings: 5 μM diclofenac, 10 min at 37° C., 6 concentrations up to 10 μM
T3 construct: 0.1 mg/mL protein human liver microsomes (BD Gentest); tissue BD Gentest; host or cells: human liver microsomes

[4] = biological target: T4, CYP2C19 (Homo sapiens, UniProt P33261); assay: Cocktail assay for CYPs in human liver microsomes: CYP2C19 (mephenytoin 4′-hydroxylation); settings: 30 μM mephenytoin, 10 min at 37° C., 6 concentrations up to 10 μM
T4 construct: 0.1 mg/mL protein human liver microsomes (BD Gentest); tissue BD Gentest; host or cells: human liver microsomes
Method: as §1, §2, §3, §4, §5, §6, §7, §8

[5] = biological target: T5, CYP2D6 (Homo sapiens, UniProt P10635); assay: Cocktail assay for CYPs in human liver microsomes: CYP2D6 (dextromethorphan O-demethylation); settings: 5 μM dextromethorphan, 10 min at 37° C., 6 concentrations up to 10 μM
T5 construct: 0.1 mg/mL protein human liver microsomes (BD Gentest); tissue BD Gentest; host or cells: human liver microsomes
Method: as §1, §2, §3, §4, §5, §6, §7, §8

[6] = human liver microsomes 0.1 mg/mL, read-out: IC50 (nM) CYP3A4
[7] = human liver microsomes 0.1 mg/mL, 10 μM phenacetin, 10 min at 37° C., 6 concentrations up to 10 μM, read-out: IC50 (nM) CYP1A2
[8] = human liver microsomes 0.1 mg/mL, read-out: IC50 (nM) CYP2C9
[9] = human liver microsomes 0.1 mg/mL, read-out: IC50 (nM) CYP2C19
[10] = human liver microsomes 0.1 mg/mL, read-out: IC50 (nM) CYP2D6
[11] = IC50 (nM) CYP3A4, human liver microsomes 0.1 mg/mL
[12] = IC50 (nM) CYP2C9, human liver microsomes 0.1 mg/mL
[13] = IC50 (nM) CYP2C19, human liver microsomes 0.1 mg/mL
[14] = IC50 (nM) CYP2D6, human liver microsomes 0.1 mg/mL

T5 sequence (P10635 whole entry): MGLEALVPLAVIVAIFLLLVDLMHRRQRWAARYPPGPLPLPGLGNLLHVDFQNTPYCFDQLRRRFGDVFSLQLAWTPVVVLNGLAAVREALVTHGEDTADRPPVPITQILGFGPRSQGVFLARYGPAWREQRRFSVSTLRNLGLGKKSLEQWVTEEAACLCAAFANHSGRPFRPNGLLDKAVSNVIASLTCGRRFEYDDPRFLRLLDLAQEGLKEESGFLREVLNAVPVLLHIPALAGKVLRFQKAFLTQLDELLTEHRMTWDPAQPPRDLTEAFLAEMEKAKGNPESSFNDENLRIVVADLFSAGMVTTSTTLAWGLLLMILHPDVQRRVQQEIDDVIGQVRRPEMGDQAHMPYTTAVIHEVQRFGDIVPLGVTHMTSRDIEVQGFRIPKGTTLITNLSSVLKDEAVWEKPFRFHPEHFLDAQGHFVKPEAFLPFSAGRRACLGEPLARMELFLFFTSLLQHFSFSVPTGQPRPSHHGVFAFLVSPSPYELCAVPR
T1 sequence (P08684 whole entry): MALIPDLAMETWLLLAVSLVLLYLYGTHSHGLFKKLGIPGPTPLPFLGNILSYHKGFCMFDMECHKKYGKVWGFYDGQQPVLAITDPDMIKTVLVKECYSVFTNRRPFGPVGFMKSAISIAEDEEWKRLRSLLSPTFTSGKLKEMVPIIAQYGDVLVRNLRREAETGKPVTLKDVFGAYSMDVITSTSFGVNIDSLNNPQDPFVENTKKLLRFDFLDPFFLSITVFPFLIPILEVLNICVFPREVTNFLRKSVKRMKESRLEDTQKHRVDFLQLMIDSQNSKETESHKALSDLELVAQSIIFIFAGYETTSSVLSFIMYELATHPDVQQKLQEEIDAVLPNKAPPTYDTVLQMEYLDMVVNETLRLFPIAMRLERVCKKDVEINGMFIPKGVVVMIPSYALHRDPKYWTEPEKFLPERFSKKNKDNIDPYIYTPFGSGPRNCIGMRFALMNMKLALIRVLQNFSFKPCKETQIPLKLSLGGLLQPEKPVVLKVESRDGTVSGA
T3 sequence (P11712 whole entry): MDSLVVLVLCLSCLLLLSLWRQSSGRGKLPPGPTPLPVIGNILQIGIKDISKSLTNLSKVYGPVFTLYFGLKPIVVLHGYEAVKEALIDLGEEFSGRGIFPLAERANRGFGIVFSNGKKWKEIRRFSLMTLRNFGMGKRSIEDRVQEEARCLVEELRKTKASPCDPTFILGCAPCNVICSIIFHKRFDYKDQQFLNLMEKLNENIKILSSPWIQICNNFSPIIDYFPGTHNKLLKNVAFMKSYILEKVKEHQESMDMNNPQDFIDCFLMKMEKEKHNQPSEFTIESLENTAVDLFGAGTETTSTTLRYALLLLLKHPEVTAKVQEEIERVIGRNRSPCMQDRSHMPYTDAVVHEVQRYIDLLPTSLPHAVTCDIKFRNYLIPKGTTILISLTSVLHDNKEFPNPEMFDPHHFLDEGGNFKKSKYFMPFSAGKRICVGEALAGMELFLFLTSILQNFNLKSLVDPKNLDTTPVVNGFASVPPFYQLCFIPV
T4 sequence (P33261 whole entry): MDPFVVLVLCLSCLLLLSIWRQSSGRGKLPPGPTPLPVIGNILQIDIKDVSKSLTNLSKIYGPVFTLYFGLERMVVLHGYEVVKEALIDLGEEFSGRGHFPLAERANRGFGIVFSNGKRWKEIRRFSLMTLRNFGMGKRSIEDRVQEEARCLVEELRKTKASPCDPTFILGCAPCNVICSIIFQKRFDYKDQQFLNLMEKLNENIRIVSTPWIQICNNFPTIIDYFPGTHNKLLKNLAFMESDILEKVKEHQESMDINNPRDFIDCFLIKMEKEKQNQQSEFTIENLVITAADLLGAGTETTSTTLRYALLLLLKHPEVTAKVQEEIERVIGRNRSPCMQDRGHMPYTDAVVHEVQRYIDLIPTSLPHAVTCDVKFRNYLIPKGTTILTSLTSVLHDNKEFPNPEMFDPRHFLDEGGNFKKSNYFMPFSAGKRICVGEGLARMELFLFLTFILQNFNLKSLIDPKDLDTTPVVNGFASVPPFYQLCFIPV

C[C@H](c1ccc(F)cc1)n1cncc1CN1CCC(C#N)(C2CCOCC2)CC1 [Compound 7, (R)-1-((1-(1-(4-fluorophenyl)ethyl)-1H-imidazol-5-yl)methyl)-4-(tetrahydro-2H-pyran-4-yl)piperidine-4-carbonitrile]
IC50 [1, 6]: 21 nM
IC50 [2, 7]: > 10000 nM
IC50 [3, 8]: 8170 nM
IC50 [4, 9]: > 10000 nM
IC50 [5, 10]: 8480 nM

CC(C)CC1(C#N)CCN(Cc2cncn2[C@H](C)c2ccc(F)cc2)CC1 [Compound 8, (R)-1-((1-(1-(4-fluorophenyl)ethyl)-1H-imidazol-5-yl)methyl)-4-isobutylpiperidine-4-carbonitrile]
IC50 [1, 6]: 22 nM
IC50 [2, 7]: 9180 nM
IC50 [3, 8]: 2530 nM
IC50 [4, 9]: 3250 nM
IC50 [5, 10]: 2490 nM

CCc1noc(C2(C)CCN(Cc3cncn3[C@H](C)c3ccc(F)cc3)CC2)n1 [Compound 9, (R)-3-ethyl-5-(1-((1-(1-(4-fluorophenyl)ethyl)-1H-imidazol-5-yl)methyl)-4-methylpiperidin-4-yl)-1,2,4-oxadiazole]
IC50 [1, 6]: 21 nM
IC50 [2, 7]: > 10000 nM
IC50 [3, 8]: 2510 nM
IC50 [4, 9]: 2270 nM
IC50 [5, 10]: 2520 nM

Cc1noc(C2(C)CCN(Cc3cncn3[C@H](C)c3ccc(F)cc3)CC2)n1 [Compound 10, (R)-5-(1-((1-(1-(4-fluorophenyl)ethyl)-1H-imidazol-5-yl)methyl)-4-methylpiperidin-4-yl)-3-methyl-1,2,4-oxadiazole]
IC50 [1, 6]: 17 nM
IC50 [2, 7]: > 10000 nM
IC50 [3, 8]: 2330 nM
IC50 [4, 9]: 7020 nM
IC50 [5, 10]: 2100 nM

CC(C)c1noc(C2(C)CCN(Cc3cncn3[C@H](C)c3ccc(F)cc3)CC2)n1 [Compound 11, (R)-5-(1-((1-(1-(4-fluorophenyl)ethyl)-1H-imidazol-5-yl)methyl)-4-methylpiperidin-4-yl)-3-isopropyl-1,2,4-oxadiazole]
IC50 [1, 6]: 21 nM
IC50 [2, 7]: 5070 nM
IC50 [3, 8]: 2880 nM
IC50 [4, 9]: 3310 nM
IC50 [5, 10]: 5990 nM

N#Cc1ccc(C2(n3cncc3CN3CCC(C#N)(c4ccc(F)cc4)CC3)CC2)cc1 [Compound 12, 1-((1-(1-(4-cyanophenyl)cyclopropyl)-1H-imidazol-5-yl)methyl)-4-(4-fluorophenyl)piperidine-4-carbonitrile]
IC50 [1, 11]: 50 nM
IC50 [2]: 1470 nM
IC50 [3, 12]: 5320 nM
IC50 [4, 13]: 3980 nM
IC50 [5, 14]: 6360 nM

C[C@H](c1ccc(F)cc1)n1cncc1CN1CCC(C#N)(c2ccccn2)CC1 [Compound 13, (R)-1-((1-(1-(4-fluorophenyl)ethyl)-1H-imidazol-5-yl)methyl)-4-(pyridin-2-yl)piperidine-4-carbonitrile]
IC50 [1, 6]: 10 nM
IC50 [2, 7]: > 10000 nM
IC50 [3, 8]: 4670 nM
IC50 [4, 9]: 6400 nM
IC50 [5, 10]: > 10000 nM

C[C@H](c1ccc(F)cc1)n1cncc1CN1CCC(C#N)(c2ccccc2)CC1 [Compound 14, (R)-1-((1-(1-(4-fluorophenyl)ethyl)-1H-imidazol-5-yl)methyl)-4-phenylpiperidine-4-carbonitrile]
IC50 [1, 11]: 17 nM
IC50 [2]: 5520 nM
IC50 [3, 12]: 2200 nM
IC50 [4, 13]: 2600 nM
IC50 [5, 14]: 3700 nM

COC(=O)C1(c2ccccc2)CCN(Cc2cncn2[C@H](C)c2ccc(F)cc2)CC1 [Compound 15, (R)-methyl 1-((1-(1-(4-fluorophenyl)ethyl)-1H-imidazol-5-yl)methyl)-4-phenylpiperidine-4-carboxylate]
IC50 [1, 11]: 16 nM
IC50 [2]: 2420 nM
IC50 [3, 12]: 1390 nM
IC50 [4, 13]: 1250 nM
IC50 [5, 14]: 2080 nM

CC(c1ccccc1-c1ccc(F)cc1)n1cncc1CN1CCC(F)(F)C1 (centres unmarked) [Compound 16, 5-((3,3-difluoropyrrolidin-1-yl)methyl)-1-(1-(4′-fluoro-[1,1′-biphenyl]-2-yl)ethyl)-1H-imidazole]
IC50 [1, 6]: 18 nM
IC50 [2, 7]: > 10000 nM
IC50 [3, 8]: 7470 nM
IC50 [4, 9]: 4270 nM
IC50 [5, 10]: 1930 nM

CC(c1ccccc1-c1ccc(F)cc1)n1cncc1CN1CCC(O)C1 (centres unmarked) [Compound 17, 1-((1-(1-(4′-fluoro-[1,1′-biphenyl]-2-yl)ethyl)-1H-imidazol-5-yl)methyl) pyrrolidin-3-ol]
IC50 [1, 6]: 29 nM
IC50 [2, 7]: > 10000 nM
IC50 [3, 8]: > 10000 nM
IC50 [4, 9]: > 10000 nM
IC50 [5, 10]: 4040 nM

CC(c1ccccc1-c1ccc(F)cc1)n1cncc1CN1CCCNC(=O)C1 (centres unmarked) [Compound 18, 4-((1-(1-(4′-fluoro-[1,1′-biphenyl]-2-yl)ethyl)-1H-imidazol-5-yl)methyl)-1,4-diazepan-2-one]
IC50 [1, 6]: 29 nM
IC50 [2, 7]: > 10000 nM
IC50 [3, 8]: > 10000 nM
IC50 [4, 9]: 4790 nM
IC50 [5, 10]: > 10000 nM

C[C@H](c1ccc(C#N)cc1)n1cncc1CN1CCC2(CC1)C(=O)NCN2c1ccccc1 [Compound 19, (R)-4-(1-(5-((4-oxo-1-phenyl-1,3,8-triazaspiro[4.5]decan-8-yl)methyl)-1H-imidazol-1-yl)ethyl) benzonitrile]
IC50 [1, 6]: 50 nM
IC50 [2, 7]: > 10000 nM
IC50 [3, 8]: 1660 nM
IC50 [4, 9]: 2420 nM
IC50 [5, 10]: 9970 nM

CC(c1ccccc1-c1ccc(F)cc1)n1cncc1CN1CCS(=O)(=O)CC1 (centres unmarked) [Compound 20, 4-((1-(1-(4′-fluoro-[1,1′-biphenyl]-2-yl)ethyl)-1H-imidazol-5-yl)methyl) thiomorpholin 1,1-dioxide]
IC50 [1, 6]: 35 nM
IC50 [2, 7]: > 10000 nM
IC50 [3, 8]: > 10000 nM
IC50 [4, 9]: 9910 nM
IC50 [5, 10]: > 10000 nM

C[C@H](c1ccc(C#N)cc1)n1cncc1CN1CCC(c2nc3ccccc3o2)CC1 [Compound 21, (R)-4-(1-(5-((4-(benzo[d]oxazol-2-yl)piperidin-1-yl)methyl)-1H-imidazol-1-yl)ethyl) benzonitrile]
IC50 [1, 6]: 35 nM
IC50 [2, 7]: > 10000 nM
IC50 [3, 8]: 4080 nM
IC50 [4, 9]: 8700 nM
IC50 [5, 10]: 7520 nM

C[C@H](c1ccc(C#N)cc1)n1cncc1CN1CCC(c2nc3ccccc3s2)CC1 [Compound 22, (R)-4-(1-(5-((4-(benzo[d]thiazol-2-yl)piperidin-1-yl)methyl)-1H-imidazol-1-yl)ethyl) benzonitrile]
IC50 [1, 6]: 26 nM
IC50 [2, 7]: > 10000 nM
IC50 [3, 8]: 1760 nM
IC50 [4, 9]: 4690 nM
IC50 [5, 10]: 3210 nM

C[C@H](c1ccc(F)cc1)n1cncc1CN1CCN(c2nc3ccccc3o2)CC1 [Compound 23, (R)-2-(4-((1-(1-(4-fluorophenyl)ethyl)-1H-imidazol-5-yl)methyl)piperazin-1-yl)benzo[d]oxazole]
IC50 [1, 6]: 7 nM
IC50 [2, 7]: > 10000 nM
IC50 [3, 8]: 4370 nM
IC50 [4, 9]: 3160 nM
IC50 [5, 10]: 2920 nM

C[C@H](c1ccc(C#N)cc1)n1cncc1CN1CCN(c2nc3ccccc3o2)CC1 [Compound 24, (R)-4-(1-(5-((4-(benzo[d]oxazol-2-yl)piperazin-1-yl)methyl)-1H-imidazol-1-yl)ethyl) benzonitrile]
IC50 [1, 6]: 11 nM
IC50 [2, 7]: > 10000 nM
IC50 [3, 8]: 3430 nM
IC50 [4, 9]: 2260 nM
IC50 [5, 10]: 3080 nM

N#Cc1ccc(C2(n3cncc3CN3CCN(c4nc5ccccc5o4)CC3)CC2)cc1 [Compound 25, 4-(1-(5-((4-(benzo[d]oxazol-2-yl)piperazin-1-yl)methyl)-1H-imidazol-1-yl)cyclopropyl) benzonitrile]
IC50 [1, 6]: 28 nM
IC50 [2, 7]: > 10000 nM
IC50 [3, 8]: 9590 nM
IC50 [4, 9]: > 10000 nM
IC50 [5, 10]: 2910 nM

From patent US10745377B2, “Piperidine or piperazine linked imidazole and triazole derivatives and methods of use” (MERCK SHARP & DOHME CORP., priority 2013, dated 2020)
